The record followed here is patent US7132252B2, “Methods for detecting the interaction of compounds with cytochrome P450 using optical molecular sensors” (Invitrogen Corporation, priority 1998, dated 2006).

Series [1] addresses T1, CYP3A4 (Homo sapiens, UniProt P08684). Nature of the series: Rate of hydroxylation of BOM-09B by CYP 3A4. The class given is biochemical. On the procedure: The racemic compound mixture (designated BOM-09B) was tested for activity with cytochrome P450 isozymes. […] The CYP 3A4 assay was performed in a 96-well plate at 37° C. in a volume of 100 μL/well. BOM-09B was diluted from a stock solution of 1 mM in acetonitrile to a 4×concentration of 80 μM in 100 mM K+ phosphate buffer of which 25 μl was added to the appropriate wells. […] The cytochrome P450 isozyme CYP3A4 was diluted to give a 2 pmol enzyme per well. Enzymic conversion of the substrate to products was allowed to proceed for 1 hour with fluorescence reads taken every 4 minutes on a fluorescence microtiter plate reader. The solution was illuminated with an 395/25 nm excitation filter and fluorescence emission was detected through a 460/40 nm the emission filter.

Series [2] deals with CYP2D6 (Homo sapiens, UniProt P10635). In words: Apparent inhibition constants of drugs for CYP 2D6 with MOBFC as sensor. On the procedure:
CYP 2D6 was incubated with 10 μM concentrations of various known inhibitors and drug substrates and residual CYP 2D6 activity assayed with the fluorogenic substrate MOBFC. The assay was performed in a 96-well plate at room temp and at a volume of 100 μl/well. 4×enzyme buffer was prepared and 25 μl was added to each well on the plate, for final assay concentrations of 3.3 mM glucose-6-phosphate, 0.4 units/ml glucose-6-phosphate dehydrogenase and 10 mM MgCl2 in 100 mM K+ phosphate, pH 8.0. […] Six consecutive 1:3 dilutions were made and 50 μl of each was added to appropriate wells on the assay plate. The CYP2D6 was diluted to a solution of 2 pmol/10 μl in 100 mM K+ phosphate and 10 μl was added to each well. 20 μl of buffer was added to each well containing standard. The drug inhibitors were allowed to pre-incubated with the CYP 2D6 enzyme for 1 hr prior to the addition of the MOBFC substrate. […] Hydroxy-trifluoro-methylcoumarin was diluted to 100 μM in K+ phosphate buffer, and seven consecutive 1:2 dilutions were made. […] After addition of 10 μl of 13 mM NADP+ solutions to all wells the assay plate was placed into the fluorescence microtiter plate reader and fluorescence measured at 3 minute intervals for 60 minutes.

The target of series [3] is T1, CYP3A4. Nature of the series: Kinetic properties of fluorescein-based fluorogenic substrates with CYP 3A4. The class given is biochemical. As to the method: Dibenzylfluorescein (DBF) was purchased form Gentest, Woburn, Mass. […] DBF, BOMF and DBOMF were diluted from a stock solution of 2 mM in acetonitrile to a 4×concentration of 80 μM in 100 mM K+ phosphate buffer. Seven 1:2 dilutions were made of each substrate of which 25 μl was added to the appropriate wells. […] The cytochrome P450 isozyme CYP3A4 was diluted to give a 0.5 pmol enzyme per well and added in a volume of 10 μl/well in K+ phosphate, pH 8.0. Enzymatic conversion of the substrate to products was allowed to proceed for 1 hour with fluorescence reads taken every four minutes on a fluorescence microtiter plate reader. The solution was illuminated using an 485/20 nm excitation filter and fluorescence emission was detected through a 530/25 nm the emission filter.

Series [4] has as its target CYP2C9 (Homo sapiens, UniProt P11712). In words: Kinetic properties of substrate BOMF with CYP 2C9 (Tris-HCl buffer). Format: biochemical.
Series [5] has as its target T1, CYP3A4. In words: Kinetic properties of fluorogenic substrates with CYP 3A4. Format: biochemical. An excerpt: For further understanding these terms in the context of this invention, attention is directed to FIG. 4 and the analysis of FIG. 4.
(respectively, MFC and MR).

Series [6] deals with T2, CYP 2B6 (Homo sapiens, UniProt P20813).
T2 sequence (P20813 1-491): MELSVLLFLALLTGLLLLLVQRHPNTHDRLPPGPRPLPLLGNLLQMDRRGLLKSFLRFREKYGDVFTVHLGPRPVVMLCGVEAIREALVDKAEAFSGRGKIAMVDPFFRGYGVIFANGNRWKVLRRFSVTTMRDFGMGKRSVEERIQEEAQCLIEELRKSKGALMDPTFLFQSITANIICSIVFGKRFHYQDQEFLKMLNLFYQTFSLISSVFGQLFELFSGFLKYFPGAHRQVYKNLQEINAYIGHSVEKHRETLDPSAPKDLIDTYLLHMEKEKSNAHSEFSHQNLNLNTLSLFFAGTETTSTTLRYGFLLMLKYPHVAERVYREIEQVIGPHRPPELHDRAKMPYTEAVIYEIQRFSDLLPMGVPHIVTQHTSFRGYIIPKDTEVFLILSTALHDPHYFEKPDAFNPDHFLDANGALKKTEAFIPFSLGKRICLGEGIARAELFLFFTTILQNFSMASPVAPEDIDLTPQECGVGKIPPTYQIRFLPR
In words: Kinetic properties of fluorogenic substrates with CYP 2B6. The class given is biochemical.

The target in series [7] is T1, CYP3A4. Nature of the series: Kinetics of BOMR and BR toward CYP 3A4 (FIG. 4). Format: biochemical. Conditions: BOMR versus BR. An excerpt:
Whichever of the four abstractable hydrogen atoms (designated H^1 and H^2 in this representation of BOMR) is removed in the initial reaction step, with reference to Reaction Scheme 1 of FIG. 1, the hydroxylation product will spontaneously decompose to the free resorufin dye. In addition, the benzyloxy group, attached to the carbon carrying the two hydrogens designated H^2, contributes an inductive electronic effect on that carbon, which can stabilize the radical formed during abstraction of one of the H^2 hydrogens by a cytochrome P450.
Optimization of assay conditions was, and is preferably, accomplished through statistically validated Design of Experiments methodologies, using the commercial software package “Design-Expert®” produced by Stat-Ease® Inc. The data shown in FIGS. 4 and 5 were obtained with initial optimization.

For series [8], the target named is T1, CYP3A4. Nature of the series: Fluorescence signal from enzymatic metabolism over reagent addition background, CYP3A4. The class given is biochemical. The conditions noted are these: BOMR vs benzylresorufin (FIG. 8); BOMCC vs BFC (FIG. 9). As to the method:
The assays were performed in a 96-well plate at room temperature and at a volume of 100 μl/well. […] (See Table 11.) The enzyme was made up in the appropriate K+ phosphate buffer at 10× and 10 μl/well was-added to the appropriate wells. (See Table 11.) The plate was read at 3 minute intervals for 12 minutes to obtain a background fluorescence levels. Readings were briefly interrupted to allow for the addition of 10 μl of 10×NADP+ in K+ phosphate buffer to each well. (See Table 11.) The readings were resumed at 3 minute intervals for another 12 minutes. […] To permit quantitative comparison between sensors that were or would be metabolized to yield fluorescent products of differing optical properties, the signal intensity corresponding to each well was normalized by division with the initial signal intensity (wells containing enzyme and buffer). […] The later increase in signal, approximately four minutes after the second addition and at later time points, is believed to be due to the enzymatic conversion of the substrate to the product. […] [table]

In series [9] the target is T1, CYP3A4.
In series [10] the target is T1, CYP3A4. In words: in vitro. The conditions noted are these: pH 8, % inhibition; for inhibition at 20 min, 10 µM: Condition A; for inhibition at 40 min, 10 µM: Condition B.
Substrate in series [11]: CCCCCCCCOCOc1ccc2nc3ccc(=O)cc-3oc2c1
In words: Kinetic properties of fluorogenic substrates with CYP 2C9. The conditions noted are these: other: — = too low to quantify. Format: biochemical, human.

Substrate in series [12]: COCOc1ccc2cc(C#N)c(=O)oc2c1
Described as above. The class given is biochemical, human. The conditions noted are these: other: — = too low to quantify.

Substrate in series [13]: COc1ccc(COc2ccc3c(C(F)(F)F)cc(=O)oc3c2)cc1
The series is described as above. The conditions noted are these: other: — = too low to quantify. The class given is biochemical, human.

Substrate in series [14]: COc1ccc(COc2ccc3nc4ccc(=O)cc-4oc3c2)cc1
The description is as above. Format: biochemical, human. The conditions noted are these: other: — = too low to quantify.

Substrate in series [15]: COc1ccc2cc(C#N)c(=O)oc2c1
Described as above. The class given is biochemical, human. The conditions noted are these: other: — = too low to quantify.

Substrate in series [16]: N#Cc1cc2ccc(OCOCc3ccccc3)cc2oc1=O
Described as above. The class given is biochemical, human. Conditions: other: — = too low to quantify.

Substrate in series [17]: O=C(O)c1ccccc1-c1c2ccc(=O)cc-2oc2cc(OCOCc3ccccc3)ccc12
In words: Kinetic properties of substrate BOMF with CYP 2C9 (Tris-HCl buffer). The conditions noted are these: other: 200 mM Tris-HCl buffer, pH 7.5. The class given is biochemical, human.

Where [18] appears, read: turnover rate at 1.25 uM substrate, — = too low to quantify.
Setting [19] is: turnover rate at 10 uM substrate, — = too low to quantify.

Where only a bound is given, the exact number is not on record here.

Sequence of CYP2D6 (P10635 whole entry): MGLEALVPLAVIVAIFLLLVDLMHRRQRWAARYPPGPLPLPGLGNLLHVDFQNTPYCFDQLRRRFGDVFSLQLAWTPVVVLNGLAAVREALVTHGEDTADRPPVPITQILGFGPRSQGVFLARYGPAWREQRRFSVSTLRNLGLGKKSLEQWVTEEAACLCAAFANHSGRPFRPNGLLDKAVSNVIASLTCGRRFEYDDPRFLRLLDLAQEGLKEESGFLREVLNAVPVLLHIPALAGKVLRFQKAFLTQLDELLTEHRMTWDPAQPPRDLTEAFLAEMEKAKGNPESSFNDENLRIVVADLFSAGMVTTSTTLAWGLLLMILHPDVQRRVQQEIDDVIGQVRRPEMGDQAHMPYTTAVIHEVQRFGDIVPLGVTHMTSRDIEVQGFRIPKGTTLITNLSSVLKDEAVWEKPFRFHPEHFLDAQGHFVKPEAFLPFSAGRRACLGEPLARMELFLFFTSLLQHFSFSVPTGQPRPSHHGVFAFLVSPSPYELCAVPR
T1 sequence (P08684 whole entry): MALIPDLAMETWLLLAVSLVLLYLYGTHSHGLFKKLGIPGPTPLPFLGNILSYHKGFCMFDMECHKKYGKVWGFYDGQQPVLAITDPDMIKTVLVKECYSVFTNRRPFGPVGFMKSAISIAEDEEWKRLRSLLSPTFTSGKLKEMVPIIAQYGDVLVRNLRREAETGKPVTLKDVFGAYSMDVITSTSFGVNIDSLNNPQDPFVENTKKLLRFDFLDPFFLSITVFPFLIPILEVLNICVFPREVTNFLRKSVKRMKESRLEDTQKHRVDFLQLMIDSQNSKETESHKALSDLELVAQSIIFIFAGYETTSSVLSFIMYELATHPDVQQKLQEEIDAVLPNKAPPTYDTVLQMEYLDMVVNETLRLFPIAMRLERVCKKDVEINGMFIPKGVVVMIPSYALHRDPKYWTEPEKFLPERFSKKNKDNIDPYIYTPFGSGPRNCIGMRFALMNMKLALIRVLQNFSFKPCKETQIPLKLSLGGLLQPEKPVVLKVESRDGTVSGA

In the case of `NC1CCCCC1NC(=O)c1cc2ccc(OCOCc3ccccc3)cc2oc1=O` (racemic) [BOM-09B], the conversion rate in series [1] (20 μM substrate, 37° C., 2 pmol enzyme per well) was 0.75 pmol substrate/pmol enzyme·min. The “rate of conversion compared with BOMCC” value in series [1] (identical conditions) is given as “half that of BOMCC”.

With `CC[C@H]1[C@@H]2C[C@H]3[C@@H]4N(C)c5ccccc5[C@]45C[C@@H]([C@@H]2[C@H]5O)N3[C@@H]1O` [Amjaline], the Ki in series [2] is over 30 µM.

`O=C(O)c1ccccc1-c1c2ccc(=O)cc-2oc2cc(OCOCc3ccccc3)ccc12` [BOMF, Benzyloxymethylfluorescein]: the type of kinetics entry in [3] and in series [4] was “MichaelisMenten” throughout. In addition, the “v (1.25 uM)” value was 0.53 min⁻¹ in [3] (turnover rate at 1.25 uM substrate, 100 mM K+ phosphate, pH 8.0) and 1.28 min⁻¹ in series [4] (turnover rate at 1.25 uM substrate, 200 mM Tris-HCl buffer, pH 7.5). Also, the “v (10 uM)” value was 3.40 min⁻¹ in series [3] (turnover rate at 10 uM substrate, 100 mM K+ phosphate, pH 8.0) and 2.84 min⁻¹ in [4] (turnover rate at 10 uM substrate, 200 mM Tris-HCl buffer, pH 7.5).

A word on the Km: it is the concentration of substrate that gives half-maximal velocity. What is called kcat is the maximal rate divided by the concentration of active sites. Turning to `O=c1ccc2nc3ccc(OCOCc4ccccc4)cc3oc-2c1` [BOMR, Benzyloxymethylresorufin], the type of kinetics result was “Michaelis-Menten” in series [5] and “notMichaelis-Menten” in [6]. Also, the entries for the “v (1.25 uM)” value in series [5] (setting [18]) and in [6] (setting [18]) were 0.55 min⁻¹ and 0.28 min⁻¹, respectively. Besides, the results for the “v (10 uM)” value in series [5] (setting [19]) and in [6] (setting [19]) were 0.88 min⁻¹ and 0.71 min⁻¹, respectively. In addition, the Km in series [6] (human, CYP 2B6 isozyme, — = too low to quantify) stood at 730 nM. Besides, the kcat in series [6] (— = too low to quantify) was determined as 0.8 min⁻¹. Also, in series [7], the “CYP 3A4 turnover rate relative to BR” value was “approximately five”. Further, the “signal to background versus prior commercially available substrate” value in series [8] was “superior signal to background”.

Take `CN(C)CCC(c1ccc(Cl)cc1)c1ccccn1` (centres unmarked) [Chlorpheniramine]: in [2], the Ki was 2.5 µM.

The inhibition is the percentage by which the read-out fell short of the control. The low end stands for a response near the control, the high end for a response far below the control. Consider `COc1cccc2c1C(=O)c1c(O)c3c(c(O)c1C2=O)C[C@@](O)(C(=O)CO)C[C@@H]3O[C@H]1C[C@H](N)[C@H](O)[C@H](C)O1` [Doxorubicin], for which, in [2], the Ki is 8 µM. Besides, the “metabolism-dependent inhibitory activity against the CYP3A4 isozyme” value in series [9] is listed as “at least partial metabolism-dependent inhibitory activity”. Moreover, the values for the inhibition at 20 min, 10 µM in series [10] (substrate BOMCC), in series [10] (substrate BOMR) and in [10] (substrate DBOMF) were 81%, 29% and 3%, respectively. Moreover, the inhibition at 40 min, 10 µM in [10] (substrate BOMCC) came to 79%; in [10] (substrate BOMR) it was 72%; in series [10] (substrate DBOMF) it was 33%.

B1: CYP 2C9 (Homo sapiens) (protein)
chain: MDSLVVLVLCLSCLLLLSLWRQSSGRGKLPPGPTPLPVIGNILQIGIKDISKSLTNLSKVYGPVFTLYFGLKPIVVLHGYEAVKEALIDLGEEFSGRGIFPLAERANRGFGIVFSNGKKWKEIRRFSLMTLRNFGMGKRSIEDRVQEEARCLVEELRKTKASPCDPTFILGCAPCNVICSIIFHKRFDYKDQQFLNLMEKLNENIKILSSPWIQICNNFSPIIDYFPGTHNKLLKNVAFMKSYILEKVKEHQESMDMNNPQDFIDCFLMKMEKEKHNQPSEFTIESLENTAVDLFGAGTETTSTTLRYALLLLLKHPEVTAKVQEEIERVIGRNRSPCMQDRSHMPYTDAVVHEVQRYIDLLPTSLPHAVTCDIKFRNYLIPKGTTILISLTSVLHDNKEFPNPEMFDPHHFLDEGGNFKKSKYFMPFSAGKRICVGEALAGMELFLFLTSILQNFNLKSLVDPKNLDTTPVVNGFASVPPFYQLCFIPV
One may read the kcat/Km as the turnover number divided by the Michaelis constant. As to B1, the Km in series [11] turned out to be 2.6 µM; in series [12] it was 20 µM; in [13], 7.7 µM; in [14], 0.4 µM; in [15] it was 70.9 µM; in series [16], 43.0 µM. For the same molecule, the Km in series [17] was 4.5 µM. Also, the kcat stood at 0.4 min⁻¹ in series [11]; 0.29 min⁻¹ in [13]; 0.00667 s⁻¹ in series [15]; 0.035 s⁻¹ in series [16]; 4.5 min⁻¹ in series [17]. For the same molecule, the specificity constant (kcat/Km) in series [11] was 2564 s⁻¹ M⁻¹; in [12], 167 M⁻¹ s⁻¹; in series [13], 628 s⁻¹ M⁻¹; in series [14] it was 952 s⁻¹ M⁻¹; in series [15], 85 M⁻¹ s⁻¹; in [16] it was 814 M⁻¹ s⁻¹. Further, the kcat/Km in series [17] is 16666 s⁻¹ M⁻¹.
